In patent US7875619B2, “Hetero substituted sodium channel blockers” (Parion Sciences, Inc., priority 2004, dated 2011):
Where a name gives a salt, the structure may show the parent alone.

Assays:
[1] = target: T1, sodium channel (ENaC), canine bronchial epithelia (Canis lupus familiaris, UniProt A0A8I3MKE6+A0A8I3Q679+Q95165); experiment: In vitro measure of sodium channel blocking activity: inhibition of short circuit current (ISC) in airway epithelial monolayers in Ussing chambers; format: cell-based; conditions: mean of N runs; for Fold Amiloride** (PSA 4022 = 100) Mean: relative potency for PSA 4022 = 100 using EC50 from PSA 4022 in same run
T1 construct: endogenous in cells; host or cells: primary canine bronchial epithelial cells cultured at air-liquid interface, mounted in Ussing chambers
T1 sequence (A0A8I3Q679 1-649): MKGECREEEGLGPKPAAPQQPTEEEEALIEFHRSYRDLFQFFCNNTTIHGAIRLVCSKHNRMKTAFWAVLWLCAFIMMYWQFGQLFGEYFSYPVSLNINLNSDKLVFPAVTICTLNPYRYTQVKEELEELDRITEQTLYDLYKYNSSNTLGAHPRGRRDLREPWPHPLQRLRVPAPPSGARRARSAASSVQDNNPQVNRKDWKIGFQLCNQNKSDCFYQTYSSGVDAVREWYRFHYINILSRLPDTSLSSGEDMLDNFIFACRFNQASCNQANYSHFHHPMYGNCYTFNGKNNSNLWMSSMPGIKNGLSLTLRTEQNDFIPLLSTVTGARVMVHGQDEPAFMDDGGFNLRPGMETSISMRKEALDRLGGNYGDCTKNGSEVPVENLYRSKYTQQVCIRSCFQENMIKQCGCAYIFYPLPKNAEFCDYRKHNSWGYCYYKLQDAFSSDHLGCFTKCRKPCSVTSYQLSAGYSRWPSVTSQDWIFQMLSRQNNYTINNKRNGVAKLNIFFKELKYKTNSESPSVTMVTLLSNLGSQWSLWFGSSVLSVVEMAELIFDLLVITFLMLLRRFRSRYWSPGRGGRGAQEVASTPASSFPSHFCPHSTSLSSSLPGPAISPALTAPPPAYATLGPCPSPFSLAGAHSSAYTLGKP
T1 sequence (Q95165 1-641): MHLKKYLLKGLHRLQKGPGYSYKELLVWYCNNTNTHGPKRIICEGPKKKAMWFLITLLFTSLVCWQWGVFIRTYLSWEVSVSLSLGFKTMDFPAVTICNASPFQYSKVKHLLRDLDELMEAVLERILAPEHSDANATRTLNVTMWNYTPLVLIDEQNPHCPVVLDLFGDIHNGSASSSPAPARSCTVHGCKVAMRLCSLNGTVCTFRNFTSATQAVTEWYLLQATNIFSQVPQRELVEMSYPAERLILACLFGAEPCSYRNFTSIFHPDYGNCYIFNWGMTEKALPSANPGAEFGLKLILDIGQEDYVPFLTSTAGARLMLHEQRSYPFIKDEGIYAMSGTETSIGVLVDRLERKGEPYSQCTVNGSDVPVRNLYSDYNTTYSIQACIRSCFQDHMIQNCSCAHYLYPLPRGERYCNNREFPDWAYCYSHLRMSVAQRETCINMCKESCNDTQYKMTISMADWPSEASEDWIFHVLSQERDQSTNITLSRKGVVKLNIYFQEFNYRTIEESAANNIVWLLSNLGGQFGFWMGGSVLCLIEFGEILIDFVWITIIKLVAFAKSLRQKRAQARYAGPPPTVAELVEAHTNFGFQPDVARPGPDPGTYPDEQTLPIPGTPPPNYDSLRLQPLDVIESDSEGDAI
T1 sequence (A0A8I3MKE6 1-646): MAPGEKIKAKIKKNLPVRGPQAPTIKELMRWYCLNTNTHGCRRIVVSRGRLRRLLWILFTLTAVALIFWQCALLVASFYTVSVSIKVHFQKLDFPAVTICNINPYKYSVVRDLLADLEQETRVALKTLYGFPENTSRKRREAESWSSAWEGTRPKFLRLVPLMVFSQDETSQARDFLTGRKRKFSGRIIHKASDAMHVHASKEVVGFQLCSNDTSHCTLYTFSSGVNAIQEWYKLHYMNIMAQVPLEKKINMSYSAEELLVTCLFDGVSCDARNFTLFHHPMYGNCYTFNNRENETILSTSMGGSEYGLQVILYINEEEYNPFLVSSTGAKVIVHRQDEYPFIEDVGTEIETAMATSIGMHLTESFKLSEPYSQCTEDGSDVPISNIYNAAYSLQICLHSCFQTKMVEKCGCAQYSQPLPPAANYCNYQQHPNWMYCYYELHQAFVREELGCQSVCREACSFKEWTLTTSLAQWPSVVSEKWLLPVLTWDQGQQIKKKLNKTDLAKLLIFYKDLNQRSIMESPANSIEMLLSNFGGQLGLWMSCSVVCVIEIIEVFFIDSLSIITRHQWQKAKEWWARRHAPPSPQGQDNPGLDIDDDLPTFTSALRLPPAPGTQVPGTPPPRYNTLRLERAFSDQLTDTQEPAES
Description: One assay used to assess mechanism of action and/or potency of the compounds of the present invention involves the determination of lumenal drug inhibition of airway epithelial sodium currents measured under short circuit current (ISC) using airway epithelial monolayers mounted in Ussing chambers. Cells obtained from freshly excised human, dog, sheep or rodent airways are seeded onto porous 0.4 micron Snapwell™ Inserts (CoStar), cultured at air-liquid interface (ALI) conditions in hormonally defined media, and assayed for sodium transport activity (ISC) while bathed in Krebs Bicarbonate Ringer (KBR) in Using chambers. All test drug additions are to the lumenal bath with half-log dose addition protocols (from 1×10^−11 M to 3×10^−5M), and the cumulative change in ISC (inhibition) recorded. All drugs are prepared in dimethyl sulfoxide as stock solutions at a concentration of 1×10^−2 M and stored at −20° C. […] After the maximal concentration (5×10^−5 M) is administered, the lumenal bath is exchanged three times with fresh drug-free KBR solution, and the resultant ISC measured after each wash for approximately 5 minutes in duration. Reversibility is defined as the percent return to the baseline value for sodium current after the third wash. All data from the voltage clamps are collected via a computer interface and analyzed off-line.
Dose-effect relationships for all compounds are considered and analyzed by the Prism 3.0 program.
PSA 4022 was also tested in each assay as a positive control.

SMILES	melting point	EC50 [1] [nM]	Fold Amiloride** (PSA 4022 = 100) Mean [1]
N=C(NCCCCc1ccc(OCCNCC(N)C(N)=O)cc1)NC(=O)c1nc(Cl)c(N)nc1N (stereo not shown) (as salt: hydrochloride) [PSA 18704, 2-amino-3-[2-(4-{4-[N′-(3,5-diamino-6-chloropyrazine-2-carbonyl)-guanidino]butyl}phenoxy)ethylamino]propionamide tri-hydrochloride]	160 °C	–	–
N=C(NCCCCc1ccc(OCCC(N)C(=O)O)cc1)NC(=O)c1nc(Cl)c(N)nc1N (stereo not shown) [PSA 17666, 2-amino-4-(4-{4-[N′-(3,5-diamino-6-chloropyrazine-2-carbonyl)-guanidino]butyl}phenoxy)butyric acid]	178 to 180 °C	29.3	34.8
COC(=O)[C@H](N)CCCc1ccc(CCCCNC(=N)NC(=O)c2nc(Cl)c(N)nc2N)cc1 [PSA 19603, 2-(R)-amino-5-(4-{4-[N′-(3,5-diamino-6-chloropyrazine-2-carbonyl)-guanidino]butyl}phenyl)pentanoic acid methyl ester]	76 to 79 °C	32.3	39.4
COC(=O)C(N)CCOc1ccc(CCCCNC(=N)NC(=O)c2nc(Cl)c(N)nc2N)cc1 (stereo not shown) (as salt: hydrochloride) [PSA 17587, 2-amino-4-(4-{4-[N′-(3,5-diamino-6-chloropyrazine-2-carbonyl)-guanidino]butyl}phenoxy)butyric acid methyl ester hydrochloride]	88 to 90 °C	–	–

Second part, the compound after the results:

melting point	EC50 [1] [nM]	Fold Amiloride** (PSA 4022 = 100) Mean [1]	SMILES
190 to 192 °C (dec.)	17	43.3	N=C(NCCCCc1ccc(CCC[C@@H](N)C(=O)O)cc1)NC(=O)c1nc(Cl)c(N)nc1N [PSA 23184, 2-(R)-amino-5-(4-{4-[N′-(3,5-diamino-6-chloropyrazine-2-carbonyl)-guanidino]butyl}phenyl)pentanoic acid]
–	9.56	132	CS(=O)(=O)N(c1ccc(CCCCNC(=N)NC(=O)c2nc(Cl)c(N)nc2N)cc1)S(C)(=O)=O [PSA 10316, N-(3,5-Diamino-6-chloropyrazine-2-carbonyl)-N′-[4-(4-bis(methanesulfonyl)aminophenyl)butyl]guanidine]
–	14.7	79.6	C[N+](C)(C)CCOc1ccc(CCCCNC(=N)NC(=O)c2nc(Cl)c(N)nc2N)cc1.Cl.[Cl-] [PSA 11223, N-(3,5-diamino-6-chloropyrazine-2-carbonyl)-N′-{4-[4-(2-chlorotrimethylammonium)ethoxyphenyl]butyl}guanidine hydrochloride]
–	3.92	131	N=C(NCCCCc1ccc(NC(=O)CCN)cc1)NC(=O)c1nc(Cl)c(N)nc1N [PSA 14568, dihydrochloride]
–	15.4	35.6	N=C(NCCCCc1ccc(NCCN)cc1)NC(=O)c1nc(Cl)c(N)nc1N [PSA 16436, N-{4-[4-(2-aminoethylamino)phenyl]butyl}-N′-(3,5-diamino-6-chloropyrazine-2-carbonyl)guanidine]
